In patent EP4122917A1, “C2-THIOETHER […] AND TETRAMERS AND USE THEREOF” (priority 2021, dated 2023):

Tested on: SARS-CoV-2 virus carrying the D614G mutation in the S protein
Assay type: cell-based
Settings: read-out: IC50 (µM) SARS-CoV-2 (Vero E6)

| Compound | IC50 |
| --- | --- |
| NCC(=O)NC(CCC(=O)N[C@@H](Cc1c(Sc2ccc([N+](=O)[O-])cc2)[nH]c2ccccc12)C(=O)O)(CCC(=O)N[C@@H](Cc1c(Sc2ccc([N+](=O)[O-])cc2)[nH]c2ccccc12)C(=O)O)CCC(=O)N[C@@H](Cc1c(Sc2ccc([N+](=O)[O-])cc2)[nH]c2ccccc12)C(=O)O [Compound 7a] | 3.02 µM |
| CC(=O)c1ccc(Sc2[nH]c3ccccc3c2C[C@H](NC(=O)CCC(CCC(=O)N[C@@H](Cc2c(Sc3ccc(C(C)=O)cc3)[nH]c3ccccc23)C(=O)O)(CCC(=O)N[C@@H](Cc2c(Sc3ccc(C(C)=O)cc3)[nH]c3ccccc23)C(=O)O)NC(=O)CN)C(=O)O)cc1 [Compound 7c] | 13.3 µM |
